The target in assay [1] is T1, M2 receptor (right atrium) (Rattus norvegicus, UniProt P10980).
T1 construct: the right atrium was isolated; from tissue; host or cells: isolated right atrium of male SD rat
T1 sequence (P10980 1-466): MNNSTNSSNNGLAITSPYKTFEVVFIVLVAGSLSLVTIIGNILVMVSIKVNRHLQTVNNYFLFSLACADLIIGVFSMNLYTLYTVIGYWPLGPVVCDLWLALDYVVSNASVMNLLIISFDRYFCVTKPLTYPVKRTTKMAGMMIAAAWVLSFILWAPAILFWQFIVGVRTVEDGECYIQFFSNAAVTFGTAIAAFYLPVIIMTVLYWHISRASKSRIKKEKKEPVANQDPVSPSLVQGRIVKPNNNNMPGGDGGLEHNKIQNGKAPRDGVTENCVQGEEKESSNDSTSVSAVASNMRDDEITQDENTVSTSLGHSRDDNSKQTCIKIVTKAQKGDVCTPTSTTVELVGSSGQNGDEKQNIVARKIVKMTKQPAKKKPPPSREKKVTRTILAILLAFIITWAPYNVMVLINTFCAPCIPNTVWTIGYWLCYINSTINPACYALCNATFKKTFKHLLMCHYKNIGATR
In words: Antagonism to M2 receptor in isolated rat right atrium (carbachol dose-response). The settings on record: 32° C. The protocol: 1) Tests for Antagonism to M2 Receptor in an Isolated Rat Right Atrium
These tests were performed according to a conventional method. A male SD strain rat (weighing 300-500 g) was killed by exsanguination, and the right atrium was isolated. This preparation was isometrically suspended in organ bath filled with 20 ml of Krebs-Hanseleit solution (gassed with 95% O2 -5% CO2 and kept at 32° C.) with an initial tension of 0.5 g. The heart rate was recorded with a heart rate counter. After the preparation was equilibrated for 30 minutes, carbachol (10^-9 to 10^-6 M) was cumulatively administered in three-fold increasing doses. Thus, a decrease in heart rate was measured to obtain a dose-response curve for the control experiment. After the preparation was washed with fresh solution to restore the heart rate, a test compound was administered thereto. Ten minutes later, carbachol was cumulatively administered again. Responses to carbachol were expressed as percentages based on the heart rate before the administration of carbachol as 100%. The antagonistic potency (KB value) of the test compound was determined from the degree of shift of the dose-response curve obtained by treatment with individual test compound of the present invention.

Assay [2] has as its target T2, M3 receptor (trachea) (Rattus norvegicus, UniProt P08483).
T2 construct: the trachea was isolated; from tissue; host or cells: isolated trachea of male SD rat
Put plainly: Antagonism to airway M3 receptor in isolated rat trachea (carbachol dose-response). The following applies: for Kb: isolated rat trachea, carbachol, 32° C.; for M2/M3 (ratio of KB): selectivity right atrium M2 over trachea M3, in vitro. The protocol:
2) Tests for Antagonism to the Airway M3 Receptor in an Isolated Rat Right Trachea
These tests were performed according to a conventional method. A male SD strain rat (weighing 300-500 g) was killed by exsanguination, and the trachea was isolated. Annular segments (2 mm wide) were cut out from the trachea and cut transversely at the anterior cartilage part to make an open ring preparation. The preparation was suspended in a Magnus tube filled with 5 ml of Krebs-Hanseleit solution (gassed with 95% O2 -5% CO2 and kept at 32° C.) with an initial tension of 1.0 g and a resting tension of 0.6 g. The tension of the preparation was recorded isometrically. After the preparation was equilibrated for an hour, the preparation was caused to contract twice with 10^-4 M carbachol, and the second contraction induced by carbachol was used as the reference contraction. After the preparation was washed with fresh solution to be restored to the base line, a test compound was administered thereto (or no treatment was given). Ten minutes later, carbachol (10^-8 to 10^-3 M) was cumulatively administered in three-fold increasing doses to obtain a dose-response curve. The dose-response curve was plotted by expressing responses as percentages based on the reference contraction of the preparation as 100%. The antagonistic potency (KB value) of the test compound was determined from the degree of shift of the dose-response curve obtained by treatment with the test compound.

The target in assay [3] is T3, m3 muscarinic acetylcholine receptor (Homo sapiens, UniProt P20309).
T3 construct: purchased Receptor Biology Inc; host or cells: CHO cells
In words: biochemical. Format: binding. The following applies: for Ki: CHO cells expressing m3, 0.2 nM [3H]-N-methylscopolamine, pH 7.4, 120 min, room temperature; for m2/m3 (ratio of Ki): selectivity m2 over m3, binding. On the procedure:
(§1) These tests were performed according to a modification of the method of Hargreaves et al. (Br. J. Pharmacol. 107: pp. 494-501, 1992). Thus, CHO cells expressing m2 and m3 muscarinic acetylcholine receptors (Receptor Biology Inc.) were incubated with 0.2 nM [^3 H]-N-methylscopolamine (84Ci/mmol, New England Nuclear, Inc.) and each compound of the present invention to be tested in 0.5 ml of 50 mM tris-HCl--10 mM MgCl2 --1 mM EDTA (pH 7.4) for 120 minutes at room temperature (about 20 to 25° C.), followed by suction filtration with a glass filter (Uni-Filter plate GF/C; Packard Instruments Co., Ind.) and washing four times with 1 ml of ice-cold Tris-HCl buffer. After the filter was dried for 1 hour at 50° C., a scintillator (Miroscinti 0; Packard Instruments Co., Inc.) was added, and the radioactivity of [^3 H]-N-methylscopolamine adsorbed by the filter was counted by a liquid scintillation counter (TopCount™; Packard Instruments Co., Inc.). Non-specific binding of [^3 H]-N-methylscopolamine was measured in the presence of 1 μM N-methylscopolamine, which was added. According to the method of Cheng and Prusoff (Biochem. Pharmacol. 22: pp. 3099-3108, 1973), the binding affinity (Ki value) of the compound of the present invention for muscarinic receptors was calculated from the concentration (IC50) of the test compound which achieved 50% inhibition of the binding of [^3 H]-N-methylscopolamine, labeled ligand.

Assay [4] concerns the target T4, m2 muscarinic acetylcholine receptor (Homo sapiens, UniProt P08172).
T4 construct: purchased Receptor Biology Inc; host or cells: CHO cells
T4 sequence (P08172 1-466): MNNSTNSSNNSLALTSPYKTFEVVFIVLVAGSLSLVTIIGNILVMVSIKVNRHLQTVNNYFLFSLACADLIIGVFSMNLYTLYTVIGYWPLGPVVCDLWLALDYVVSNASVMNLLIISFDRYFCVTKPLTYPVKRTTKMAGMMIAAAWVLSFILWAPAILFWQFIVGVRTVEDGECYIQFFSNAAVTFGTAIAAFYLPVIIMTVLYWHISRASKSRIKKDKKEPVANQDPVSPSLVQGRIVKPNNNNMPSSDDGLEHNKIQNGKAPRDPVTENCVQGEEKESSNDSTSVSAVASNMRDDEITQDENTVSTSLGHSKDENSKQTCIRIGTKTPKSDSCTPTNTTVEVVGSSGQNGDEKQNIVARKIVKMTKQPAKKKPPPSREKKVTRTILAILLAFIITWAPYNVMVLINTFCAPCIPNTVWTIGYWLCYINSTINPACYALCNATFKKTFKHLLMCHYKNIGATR
Put plainly: biochemical. Type of assay: binding. The following applies: CHO cells expressing m2; 0.2 nM [3H]-N-methylscopolamine, pH 7.4, 120 min, room temperature. The protocol:
as §1

Assay [5] has as its system muscarinic M3 receptor. In words: Bronchodilation in dogs (oral administration), methacholine provocation test. Format: in vivo, dog (beagle). The settings on record: 0.1 mg/kg, P.O., 4 hrs later. On the procedure: Tests for Antagonism Against Muscarinic M3 Receptor (in vivo)
Tests for Bronchodilation in Dogs (oral administration)
Male beagles of 12 to 24 months of age, weight 10 to 15 kg, were anesthetized with pentobarbital (30 mg/kg, iv.), and the trachea of each dog was intubated. The sensitivity of the airway (methacoline reaction threshold value) was measured at least twice at two weeks' intervals by a methacoline provocation test, and dogs manifesting a reproducible methacoline reaction threshold value^1) were selected. To those dogs whose methacholine reaction threshold value was established, the test compound was orally administered (0.1 mg/kg). Four hours after the administration, a methacoline provocation test was again conducted, and the methacholine reaction threshold value^2) after the administration of the test compound was measured. The brochodilator activity of the test compound was determined by the following equation: [formula]
The methacholine provocation test was conducted using an Astograph TCK-6100H model (Chest). Methacholine chloride was used as brochoconstritor, which was diluted with isotonic sodium chloride solution in 10 grade concentration levels from 40,000 μg/ml to 20,000, 10,000, 5,000, 2,500, 1,250, 625, 312.5, 156 and 78 μg/ml. The test animals were caused to inhale these methacoline aerosols for 1 min. at a time, starting with the lowest concentration upward, and the respiratory resistance was continuously recorded. The concentration of methacoline at which the respiratory resistance reached a value twice its initial level was deemed to be the methacholine threshold value.

T3 sequence (P20309 whole entry): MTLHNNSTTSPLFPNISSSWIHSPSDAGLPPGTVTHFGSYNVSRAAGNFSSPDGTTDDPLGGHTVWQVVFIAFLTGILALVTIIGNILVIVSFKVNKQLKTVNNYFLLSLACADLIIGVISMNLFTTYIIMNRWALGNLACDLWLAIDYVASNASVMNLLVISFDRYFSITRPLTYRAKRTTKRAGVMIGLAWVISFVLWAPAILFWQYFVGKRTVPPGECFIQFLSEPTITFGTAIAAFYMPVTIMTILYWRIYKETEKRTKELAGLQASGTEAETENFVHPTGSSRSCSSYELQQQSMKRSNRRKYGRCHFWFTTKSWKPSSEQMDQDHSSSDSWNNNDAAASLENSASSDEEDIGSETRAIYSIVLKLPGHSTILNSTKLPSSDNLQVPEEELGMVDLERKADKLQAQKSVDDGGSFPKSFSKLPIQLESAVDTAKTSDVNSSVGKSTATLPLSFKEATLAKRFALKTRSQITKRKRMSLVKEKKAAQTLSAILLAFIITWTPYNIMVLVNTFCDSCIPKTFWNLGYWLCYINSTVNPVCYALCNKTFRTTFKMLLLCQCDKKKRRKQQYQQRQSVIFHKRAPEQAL
T2 sequence (P08483 whole entry): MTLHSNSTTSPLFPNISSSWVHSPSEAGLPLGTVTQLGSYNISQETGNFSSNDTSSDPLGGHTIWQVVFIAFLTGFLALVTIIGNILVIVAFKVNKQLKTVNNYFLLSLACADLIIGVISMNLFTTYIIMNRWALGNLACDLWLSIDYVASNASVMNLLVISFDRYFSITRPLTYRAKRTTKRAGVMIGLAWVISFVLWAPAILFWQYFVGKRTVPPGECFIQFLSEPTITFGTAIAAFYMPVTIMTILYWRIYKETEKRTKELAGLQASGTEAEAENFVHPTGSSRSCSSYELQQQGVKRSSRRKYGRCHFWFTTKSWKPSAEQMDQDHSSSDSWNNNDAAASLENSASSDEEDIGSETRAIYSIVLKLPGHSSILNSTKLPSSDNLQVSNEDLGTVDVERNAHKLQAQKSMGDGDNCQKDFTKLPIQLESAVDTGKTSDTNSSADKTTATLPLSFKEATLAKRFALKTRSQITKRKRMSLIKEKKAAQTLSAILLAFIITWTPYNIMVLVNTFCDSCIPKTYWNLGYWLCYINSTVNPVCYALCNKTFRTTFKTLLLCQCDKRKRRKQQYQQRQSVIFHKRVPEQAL

Compound `Cl.NC1CCN(C(=O)[C@](O)(c2ccccc2)[C@@H]2CCC(F)(F)C2)CC1` [Example 1, 4-Amino-1-{(2R)-2-((1R)-3,3-difluorocyclopentyl)-2-hydroxy-2-Phenylacetyl}piperidine monohydrochloride] displayed a Kb in assay [1] of 730 nM. In addition, in assay [2], the Kb was determined as 20 nM and the “M2/M3 (ratio of KB)” value was determined as 37.

On to `O=C(N1CC2=C(CNC2)C1)[C@](O)(c1ccccc1)[C@@H]1CCC(F)(F)C1` [Example 35, 3-{(2R)-2-((1R)-3,3-difluorocyclopentyl)-2-hydroxy-2-phenylacetyl}-3,7-diazabicyclo[3.3.0]oct-1(5)-ene], for which, in assay [3], affinity was put at a Ki of 4.2 nM and the “m2/m3 (ratio of Ki)” value is listed as 160. The Ki in assay [4] came out at 670 nM. This compound displayed a Kb in assay [1] of 2400 nM. Besides, the “Methacoline Provocation Test Shift value” in assay [5] was found to be 5.8. Moreover, in assay [2], the Kb worked out at 8 nM and the “M2/M3 (ratio of KB)” value worked out at 300.

For the compound `CC1NCCC12CCN(C(=O)[C@](O)(c1ccccc1)[C@@H]1CCC(F)(F)C1)CC2` (single isomer, unassigned) [Example 43 ((IS*)-substance), (1R*)- and (1S*)-8-{(2R)-2-((1R)-3,3-difluorocyclopentyl)-2-hydroxy-2-phenylacetyl}-1-methyl-2,8-diazaspiro[4.5]decane], in assay [3], the affinity, expressed as Ki, was 0.26 nM and the “m2/m3 (ratio of Ki)” value came to 80. Moreover, the Ki in assay [4] was 21 nM. In addition, in assay [5], the “Methacoline Provocation Test Shift value” came to 22.

For `O=C(N1CCC2(CCNC2)CC1)[C@](O)(c1ccccc1)[C@@H]1CCC(F)(F)C1` [Example 26, 8-{(2R)-2-((1R)-3,3-difluorocyclopentyl)-2-hydroxy-2-phenylacetyl}-2,8-diazaspiro[4.5]decane], the values for the Ki in assay [3] and in assay [4] were 0.44 nM and 27 nM, respectively. Besides, the “m2/m3 (ratio of Ki)” value in assay [3] is on record as 60. Further, the Kb in assay [1] stood at 75 nM; in assay [2], 0.83 nM. Also, the “Methacoline Provocation Test Shift value” in assay [5] stood at 7.1. Further, the “M2/M3 (ratio of KB)” value in assay [2] is reported as 75.

Regarding `O=C(N1C[C@H]2CCNCC[C@H]2C1)[C@](O)(c1ccccc1)[C@@H]1CCC(F)(F)C1` [Example 29, 9-{(2R)-2-((1R)-3,3-difluorocyclopentyl)-2-hydroxy-2-phenylacetyl}-cis-4,9-diazabicyclo[5.3.0]decane], in assay [3], the Ki amounted to 1.2 nM and the “m2/m3 (ratio of Ki)” value is 190. In assay [4], this compound came in with a Ki of 230 nM. Also, in assay [1], the antagonist dissociation constant (Kb) stood at 230 nM. Besides, the “Methacoline Provocation Test Shift value” in assay [5] is listed as 22. In addition, in assay [2], the Kb turned out to be 1.6 nM and the “M2/M3 (ratio of KB)” value was 140.
